B1: CapG: Ca^2+-dependent, (+)-end actin filament capping protein, cloned from mouse brain cDNA library (protein, UniProt P24452 1-352, looked up)
Macrophage-capping protein: MYTPIPQSGSPFPASVQDPGLHIWRVEKLKPVPIARESHGIFFSGDSYLVLHNGPEEASHLHLWIGQQSSRDEQGACAVLAVHLNTLLGERPVQHREVQGNESDLFMSYFPRGLKYYREGGVESAFHKTTSGARGAAIRKLYQVKGKKNIRATERPLSWDSFNTGDCFILDLGQNIFAWCGGKSNILERNKARDLALAIRDSERQGKAQVEIITDGEEPAEMIQVLGPKPALKEGNPEEDITADQTRPNAQAAALYKVSDATGQMNLTKVADSSPFASELLIPDDCFVLDNGLCAQIYIWKGRKANEKERQAALQVADGFISRMRYSPNTQVEILPQGRESPIFKQFFKNWK

Columns and labels:
[1] = target: T1, Prodan-G-actin (Oryctolagus cuniculus, UniProt P68135); test: Competition-binding assay with GS1 and CapG on Prodan-G-actin; design: F-actin is purified from rabbit skeletal muscle using a standard protocol; from tissue; host or cells: actin from rabbit skeletal muscle; CapG and GS1 expressed in E. coli M15; species or system rabbit
Method: FIG. 4: (A) CapG: (a), Prodan-G-actin (100 nM), (b), Prodan-G-actin-CapG; (c), same as (b) in the presence of 0.2 μM KabC; (B); GS1: (a), Prodan-G-actin 100 nM; (b), Prodan-G-actin-GS1; (c), same as (b) in the presence of 0.2 μM KabC.
Characterization of actin binding proteins: The actin-binding properties of the ABPs used in this study are evaluated from changes in the fluorescence emission spectrum of Prodan-actin and actin polymerization assays as described by Marriott et al (1988).
Trisoxazolemacrolides specifically compete with GS1 for the (+)-end binding site on actin. Gelsolin, a monomeric 80 kD cytoskeleton protein composed of six domains interacts with actin filaments in a complex, Ca^2+-dependent manner (Janmey et al, 1985; Burtnick et al, 1997). Gelsolin exerts two major effects once bound to an actin filament: first it severs the filament and second it remains tightly bound to the severed (+)-end and serves to block, or cap, further growth. […] Structural analyses of G-actin complexes with GS1 (McLaughlin et al, 1993) and KabC show these unrelated molecules bind to G-actin through common contact sites that include a patch of hydrophobic residues on the surface between sub-domains 1 and 3 and within the cleft that forms between the interface of sub-domains 1 and 3 (McLaughlin et al, 1993;). GS1 binding to Prodan-G-actin shifts the average energy of the fluorescence emission to the red and is accompanied by a decrease in the quantum yield (FIG. 4A) but not to the extent seen in the KabC-G-actin complex (FIG. 2).
Trisoxazolemacrolides specifically compete with CapG for the (+)-end binding site on actin. CapG, a Ca^2+-dependent, (+)-end actin filament capping protein, is found at high levels in macrophage cells where it regulates membrane ruffling and cell protrusions associated with phagocytosis and motility (Botelho et. al., 2000). […] The Ca^2+-dependent binding of CapG to Prodan-G-actin is accompanied by a dramatic blue-shift in the emission spectrum and an increase in quantum yield (FIG. 4B, curve b). The difference in fluorescence emission spectra between free and CapG-bound Prodan-G-actin is used to quantify the parameters for this binding reaction. The G-actin-CapG complex exists as a 1:1 complex and has a dissociation constant of 100 nM (data not shown). […] This conclusion is consistent with a comparison of high-resolution structures of G-actin with GS1 and KabC and a preliminary analysis of a 2.8 Angstrom structure of a CapG mutant (Vorobiev et al, PDB database, 2002). […] However the emission properties of the CapG-Prodan-G-actin complex are unaffected by the binding of LatA, DNAse and thymosin β4 (Tβ4), which is consistent with some structural data showing that these sequestering molecules bind closer to the ATP pocket and DNAse binding loop (Kabsch et al, 1990).

[2] = target: T1, Prodan-G-actin; test: Kinetic analysis of binding to Prodan-G-actin (stopped-flow and slow phase); design: F-actin is purified from rabbit skeletal muscle using a standard protocol; Prodan (Acrylodan) fluorophore, chemical label on the thiol of Cys374; from tissue; host or cells: rabbit skeletal muscle; species or system rabbit
Method: FIG. 3: Kinetic analyses of KabC binding of Prodan labeled G-actin. (A-B). Prodan-actin (0.1 μM) and KabC, loaded into separated syringes, were rapidly mixed within ˜1 msec dead-time. The concentrations of KabC were 0.0 μM (a), 1.0 μM (b), 1.5 μM (c), 2.0 μM (d) and 2.5 μM (data not shown), respectively. The decreases in emission intensity were well fitted with single exponential functions to determine the observed rate, kobs. The observed rates are plotted as a function of the [KabC] in panel (B).
Kinetic analysis of binding reactions. The kinetics of the KabC interaction with Prodan-actin is determined, using an Applied Photophysics SX.18MV Stopped-flow spectrometer, by following the decrease in the emission intensity of Prodan-actin at 25° C. Prodan was excited at 385 nm and emission was collected with a 470 nm (+/−5 nm) band-pass filter. In all cases the decrease in emission intensity was best fit with a single exponential function, which was then used to determine the observed rate, kobs. Kinetic constants of on rate (kon) and off rate (koff) were calculated according to the following equation: kobs=kon[KabC]+koff. The kinetics of the slower binding step observed in the interaction of KabC with Prodan-G-actin interaction is measured by measuring the ratio of fluorescence signals at 465 nm and 530 nm. The decay of this ratio is fit using a single exponential rate.

[3] = test system: NBT-II cells; test: Effect of macrolides on NBT-II cells (live cell microscopy); assay type: cell-based, rat
Method: FIG. 7: Effect of KabC on NBT-II cells. NBT-II cells are imaged after 16 hours of drug treatment. KabC concentrations: (A), Control; (B), 10 nM; (C), 100 nM and (D), 1000 nM.
Cell Culture: Rat bladder NBT-II carcinoma cells and mouse NIH 3T3 fibroblast cells are maintained and treated with external drugs as described in Choidas et al (1998).
Live cell microscopy: A multi-model microscope workstation was used to image phase contrast and fluorescence images of living cells (Choidas et al, 1998). Cells are maintained at 37° in a Hepes based culture medium in a Bioptechs cell perfusion chamber (Choidas et al, 1998).

[4] = target: T2, Prodan-labeled G-actin (Oryctolagus cuniculus, UniProt P68135); test: Prodan-G-actin titration: binding stoichiometry and dissociation constant; design: species or system rabbit; settings: Prodan-G-actin titration; read-out: dissociation constant of G-actin complex
T2 construct: F-actin is purified from rabbit skeletal muscle using a standard protocol; Prodan (Acrylodan) fluorophore, chemical label on the thiol of Cys374; from tissue; host or cells: rabbit skeletal muscle
Method: FIG. 2: (A), Stoichiometric binding of Prodan-labeled G-actin (1 μM) in G-buffer with KabC at final concentrations of in μm, a: 0.0; b: 0.1; c: 0.2; d: 0.3; e: 0.4; f: 0.5; g: 0.6; h: 0.7; i: 0.8; j: 0.9; k: 1.0; l: 1.1; m: 1.2; n: 1.5 (B), Plot of the integrated intensity in (A) against [KabC] yields a binding stoichiometry of 1:1.
Prodan-actin: Actin is labeled with the thiol probe, Acrylodan (Molecular Probes, Eugene, Oreg.) using a standard protocol (Marriott et al, 1988). Rabbit muscle G-actin is labeled with the thiol reactive, environmentally sensitive probe, Acrylodan, according to the inventor's earlier publication (Marriott et al, 1988). […]
Determination of the binding stoichiometry and dissociation constants for G-actin complexes with ABPs and macrolide drugs: The change in the quantum yield and/or emission energy of Prodan-actin is used to quantify the interaction of CapG and macrolides with G-actin. The stoichiometry of the CapG-G-actin and macrolide-G-actin complex is determined by titrating Prodan-G-actin at 1 μM with increasing amounts of CapG or the macrolide from 0.1^−10 μM. […] The equilibrium binding constant is determined by titrating a constant amount of Prodan labeled G-actin at 0.05˜0.1 μM in G- or F-buffer with incrementally increasing amounts of the macrolide or CapG over a range of 10 nM to 10 μM. […]

Molecule	effect of binding on emission properties of CapG-Prodan-G-actin complex [1]	cytotoxic activity on NBT II epithelia cells [3]	further results
thymosin β4: actin monomer sequestering protein	unaffected	–	–
Ulapualide A [UlaA]	–	concentration dependent cytotoxic activity	binding steps in reaction with G-actin [2]: 1st and 2nd-binding steps are common
DNAse	unaffected	–	–
C/C1=C/C(=O)O[C@@H]2C[C@@H](CC[C@H](C)/C=C\C=C\CC1)O[C@@](O)([C@@H]1CSC(=O)N1)C2 [LatA]	unaffected	–	–
CO[C@H]1C[C@H](CC[C@H](C)[C@H](O)[C@H](C)[C@H]2OC(=O)/C=C/C(C)=C/C[C@H](O)C[C@@H]3C=CC[C@@H](C[C@H](OC)[C@@H](C)[C@@H](O)C[C@@H](O)[C@H](C)[C@@H]([C@@H](C)[C@@H](O)[C@@H](C)CC[C@H]4C[C@H](OC)C[C@H](C)O4)OC(=O)/C=C/C(C)=C/C[C@H](O)C[C@@H]4C=CC[C@@H](C[C@H](OC)[C@@H](C)[C@@H](O)C[C@@H](O)[C@@H]2C)O4)O3)O[C@@H](C)C1 [SwiA, Swinholide A]	–	concentration dependent cytotoxic activity	binding site on actin by competition-binding assay [1]: bind to the same site on actin as KabC, CapG and GS1
CO[C@H]1C[C@H](CC[C@H](C)[C@H](O)[C@H](C)[C@H]2OC(=O)/C(C)=C/C[C@H](O)C[C@@H]3C=CC[C@@H](C[C@H](OC)[C@@H](C)[C@@H](O)C[C@@H](O)[C@H](C)[C@@H]([C@@H](C)[C@@H](O)[C@@H](C)CC[C@H]4C[C@H](OC)C[C@H](C)O4)OC(=O)/C(C)=C/C[C@H](O)C[C@@H]4C=CC[C@@H](C[C@H](OC)[C@@H](C)[C@@H](O)C[C@@H](O)[C@@H]2C)O4)O3)O[C@@H](C)C1 [MisA, misakinolide A]	–	concentration dependent cytotoxic activity	binding site on actin by competition-binding assay [1]: bind to the same site on actin as KabC, CapG and GS1
COC(CC1OC(=O)CC(O)C/C=C/C(=O)C(C)C(OC)c2coc(n2)-c2coc(n2)-c2coc(n2)/C=C/CCC1C)C(C)CCC(=O)C(C)C(C/C=C/N(C)C=O)OC (stereo not drawn) [Hal, halichondramide]	–	concentration dependent cytotoxic activity	binding steps in reaction with G-actin [2]: 1st and 2nd-binding steps are common
B1	–	–	Kd [4]: 100 nM
